Source: patent US20120269815A1, “NEUROTROPHINS AND USES THEREOF” (Regents of the University of Minnesota, priority 2008, published 2012)
No end group written: not given here.

Key:
p75^NTR = target: T1, p75^NTR (Homo sapiens, UniProt P08138); experiment: Fluorescence-labeled TUF1 peptide binding to COS7 cells expressing p75NTR; details: labeled peptide 5 nM, 90 min, COS7 cells transfected with pCMV-SPORT6-p75
T1 construct: host or cells: COS7
T1 sequence (P08138 29-427): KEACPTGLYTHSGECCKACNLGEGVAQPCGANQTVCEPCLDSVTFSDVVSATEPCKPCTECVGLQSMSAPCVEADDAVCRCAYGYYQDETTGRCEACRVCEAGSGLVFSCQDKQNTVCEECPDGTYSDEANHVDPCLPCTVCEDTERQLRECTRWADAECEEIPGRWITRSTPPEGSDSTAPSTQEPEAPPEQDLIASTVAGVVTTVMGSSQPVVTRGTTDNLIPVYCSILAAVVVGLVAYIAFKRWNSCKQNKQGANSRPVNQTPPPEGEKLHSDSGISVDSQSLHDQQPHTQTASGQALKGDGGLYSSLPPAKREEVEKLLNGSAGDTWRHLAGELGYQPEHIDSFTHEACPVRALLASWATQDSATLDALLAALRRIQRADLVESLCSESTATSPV
Experimental: (§1) COS7 cells were seeded at 10,000 cells/well onto a 18 mm coverslip in a 12-well plate. Cells were allowed to settle overnight in a cell culture incubator (NuAire NU-8600, NuAire, Inc., Plymouth, Minn.) set at 37° C. and 5% CO2. Cells were transfected with pCMV-eGFP (Clontech Laboratories, Inc., Mountain View, Calif.) or pCMV-SPORT6-p75 (ATCC) using Fugene HD (Roche Diagnostics Corp., Indianapolis, Ind.) and were incubated overnight. The binding assays were carried out according to Horton et al. with modifications. Synthetic TUF1 peptides (TUF1[43-54] (SEQ ID NO:1) and TUF1[24-40] (SEQ ID NO:3) were generated (via Sigma Genosys, Sigma-Aldrich Co. St. Louis, Mo.) and were conjugated per manufacturer's recommendation with DyLight 549 NHS Ester (Thermo Fisher Scientific, Waltham, Mass.), which have similar spectra to Cy3 dye. Unconjugated dye was removed with a dye removal column (Thermo Fisher Scientific, Waltham, Mass.). Labeled peptides were diluted to 5 nM in 0.15 M Sucrose/PBS and added (1.0 ml/well) to transfected COS7 cells. The binding reaction was incubated in the dark at room temperature for 90 minutes. Cells were rinsed thoroughly with PBS+0.05% Tween-20 to remove unbound peptide. Cells were then fixed with 4% Paraformaldehyde (5 minutes).
Following fixation, cells were permeabilized in PBS+0.1% Tween-20 for 10 minutes, rinsed thoroughly with PBS, and blocked in BSA (10 mg/ml) for 10 minutes. Cells were incubated with rabbit anti-p75^NTR antibody (1:10,000 dilution) for 30 minutes. Excess antibody was removed with PBS washes. Cells were then incubated with Alexa-488 goat anti-rabbit antibody (1:500 dilution, Invitrogen). Cells were again rinsed thoroughly with PBS and mounted in Vectashield mounting media plus DAPI (Vector Laboratories, Inc., Burlingame, Calif.).
COS7 cells were seeded at 10,000 cells/well onto an 18 mm coverslip in a 12-well plate. Cells were allowed to settle overnight in a cell culture incubator (NuAire NU-8600, NuAire, Inc., Plymouth, Minn.) set at 37° C. and 5% CO2. Cells were transfected with pCMV-eGFP (Clontech Laboratories, Inc., Burlingame, Calif.) or pCMV-SPORT6-p75 (ATCC) using Fugene HD (Roche Diagnostics Corp., Indianapolis, Ind.) and were incubated overnight. The binding assays were carried out according to Horton et al. with modifications. Synthetic TUF1 peptides (TUF1[43-54] (SEQ ID NO:1) and TUF1[24-40] (SEQ ID NO:3)) were generated (via Sigma Genosys, Sigma-Aldrich, St. Louis, Mo.) and were conjugated per manufacturer's recommendation with DyLight 549 NHS Ester (Thermo Fisher Scientific Inc., Waltham, Mass.), which have similar spectra to Cy3 dye. Unconjugated dye was removed with a dye removal column (Thermo Fisher Scientific Inc., Waltham, Mass.). Labeled peptides were diluted to 5 nM in 0.15M Sucrose/PBS and added (1.0 ml/well) to transfected COS7 cells. The binding reaction was incubated in the dark at room temperature for 90 min. Cells were rinsed thoroughly with PBS+0.05% Tween-20 to remove unbound peptide. Cells were then fixed with 4% Paraformaldehyde (5 minutes).
Following fixation, cells were permeabilized in PBS+0.1% Tween-20 for 10 minutes, rinsed thoroughly with PBS, and blocked in BSA (10 mg/ml) for 10 minutes. Cells were incubated with rabbit anti-p75^NTR antibody (1:10,000 dilution) for 30 minutes. Excess antibody was removed with PBS washes. Cells were then incubated with Alexa-488-goat anti-rabbit antibody (1:500 dilution, Invitrogen Corp., Carlsbad, Calif.). […]

[1] = tested on: unknown receptor expressed in COS7 cell; experiment: Fluorescence-labeled TUF1 peptide binding to control (pCMV-GFP) COS7 cells; details: labeled peptide 5 nM, COS7 cells transfected with pCMV-GFP
Experimental: as §1, with “minutes). […]” for “minutes).”

GT1-1 cells = details: 24 hr serum deprivation, 3.6 μM peptide
Experimental: GT1-1 cell survival assays: GT1-1 cells are immortalized cell line derived from mouse embryonic hypothalamus (a gift from Dr. Richard Weiner, UCSF).
a) Suppression of TUF1 expression by RNAi GT1-1 cells were seeded at 100,000 cells/well in a 12-well plate (as described in Example 1) and incubated for 72 hours at 37° C. supplemented with 5% CO2. Fresh growth media were added for at least 1 hour before cells were transfected with negative control RNAi or TUF1-specific RNAi (150 picomoles diluted in OptiMEM, Stealth RNAi, Invitrogen Corp., Carlsbad, Calif.) using Fugene6 (1.5 μl/200 μl medium, Roche Diagnostics Corp., Indianapolis, Ind.) and incubated overnight. […] Cells were then lifted from the well by adding Trypsin-EDTA (Invitrogen Corp., Carlsbad, Calif.) and surviving cells were counted by Trypan Blue exclusion using a hemocytometer and an inverted microscope. […]
b) Repression of TUF1 activity by anti-TUF1 peptide antibody (IgG) GT1-1 cells were seeded at 100,000 cells/well and incubated for 72 hours as described above. […] Surviving cells were lifted from wells and counted as described in part (a). […]
Cells were treated with serum-free media supplemented with 0.0 μg/ml, 2.5 μg/ml (1.8 μM), or 5.0 μg/m (3.6 μM) TUF1 peptide. Surviving cells were counted at 24 hours, 48 hours, and 72 hours of incubation as described in part (a). […]

AYKSYVRALPLL [TUF1[43-54]] was tested. Which “binding to p75^NTR” value (p75^NTR) did it give?
Its value is “binds more readily to p75 neurotrophic receptor”.

What about the “binding to p75^NTR” value (p75^NTR; listed as TUF1^43-54) of the same sequence?
The value was “found to bind the p75^NTR”.

And the “binding to p75^NTR” value (p75^NTR; listed as TUF1 peptide)?
Its value is “binds p75 receptor expressed in COS cells”.

What about the “binding to unknown receptor expressed in COS7 cell” value [1] of the same sequence?
Its value is “binds to an unknown receptor expressed in COS7 cell at a low level”.

What about the “effect on cell survival” value (GT1-1 cells) of the same sequence?
Its value is “no effect”.
